Measured values published in patent US20150140123A1, “Protein expression analyses for identifying genotoxic compounds” (Merck Patent GmbH, priority 2012, published 2015).
Like-named read-outs stand apart in the source and are kept apart here.

Assays:
[1] = system: p-p53 (Ser15), p21, p-H2A.X (Ser139), p-ATM (Ser1981), p-Chk1 (Ser345) in HepG2 cells
Protocol: (§1) HepG2 cells (Order No. HB-8065, Lot. 58483209, ATCC, Manassas, USA) were cultured in DMEM/F12 with L-Glutamine and 15 mM Hepes supplemented with 10% (v/v) FBS, 1% (v/v) penicillin (10 kU/ml)/streptomycin (10 mg/ml) solution, 0.1% (v/v) gentamicin (50 mg/ml), and 1 mM sodium pyruvate at 37° C. and 5% CO2 in culture flasks. Depending on the experiment, an appropriate number of cells were seeded onto plates after detaching of the cells using trypsin and cells were cultured at 37° C. and 5% CO2 for 24 h prior to treatment. All experiments were performed three times with cells of passages 4-20.
(§2) Cells were seeded onto black Poly-D-Lysin coated 96-well-plates (BD Biocoat, Franklin Lakes, USA) (0.02×10^6 cells/well) and left 24 h for adherence and then treated with test compounds at a maximum concentration of 1 mM which is recommended by the ICH S2(R1) guideline (EMA, 2011). For each compound, nine concentrations were tested with 2-fold serial dilutions. DMSO 1% (v/v) served as vehicle control for the experiments. The treatment procedure was different for direct-genotoxic and pro-genotoxic compounds. The treatment for direct genotoxic compounds was ongoing and was repeated daily over 48 h. Pro-genotoxic compounds were incubated for 6 h together with metabolic activation system (to limit the cytotoxic effect of the S9-mixture). After this period, cells were washed with cell media followed by 18-repeated daily over 48 h. The metabolic activation system used consisted of the following components and concentrations: 8 mM MgCl2, 32.8 mM KCl, 12 mM NADPH, 124 mM phosphate buffer and 2500 pmol/ml cytochrome P450 (CYP) content in the pre-mixture corresponding to 2.4 mM MgCl2, 9.8 mM KCl, 3.6 mM NADPH, 37.2 mM phosphate buffer, and 750 pmol/ml CYP as final concentrations after dilution 1:3.33 with cell culture media.
Two different staining procedures were performed for each compound with and without metabolic activation system:
After treatment, cells were rinsed with PBS (Gibco Invitrogen, Karlsruhe, Germany), and then fixed with 3.7% formaldehyde (Sigma-Aldrich, Taufkirchen, Germany) in PBS for 20 min. After an additional washing step with PBS, cells were blocked and permeabilized with 2% donkey serum (Millipore, Schwalbach, Germany) and 0.25% Triton X-100 (Sigma-Aldrich, Taufkirchen, Germany) in PBS for 30 min. Primary antibodies were diluted to final concentrations of 2 μg/ml anti-p-p53 (Ser15) rabbit monoclonal antibody IgG (Invitrogen, Karlsruhe, Germany), 0.8 μg/ml anti-p21 goat polyclonal antibody IgG, (R&D systems, Minneapolis, USA); 4 μg/ml anti-p-Histone H2A.X (Ser139) mouse monoclonal antibody IgG1 (Millipore, Schwalbach, Germany) in Blocking/Permeabilization solution were added afterwards. After incubation for 16-18 h, cells were washed with 0.05% Tween 20 (Calbiochem, Darmstadt, Germany) in PBS and the secondary antibody/16 μM Hoechst staining solution in Blocking/Permeabilization solution was added. Secondary antibodies were diluted 1:400 (Alexa Fluor 488 donkey anti-rabbit, Alexa Fluor 555 donkey anti-goat, Alexa Fluor 647 donkey anti-mouse, Invitrogen, Karlsruhe, Germany). After an incubation of 1 h, followed by two additional washing steps with 0.05% Tween 20, cells were washed with PBS and finally PBS was added and cells were measured.
After treatment, cells were rinsed with PBS (Gibco Invitrogen, Karlsruhe, Germany), and then stained with 10 μM CellTracker Green 5-Chloromethylfluorescein Diacetate (CMFDA) (Invitrogen, Karlsruhe, Germany) in cell culture media for 30 min. CMFDA is per se non-fluorescent and is hydrolyzed by esterase in viable cells to a fluorescent-dye. The reaction with thiol groups leads to a cell-impermeable fluorescent-dye-adduct. The esterase activity can be used as an indicator for viability of cells (Papadopoulos et al., 1994, J Immunol Methods 177, 101-11). Afterwards, cells were washed with PBS and fixed with 3.7% Formaldehyde (Sigma-Aldrich, Taufkirchen, Germany) in PBS for 20 min.

HepG2 cells = test: High content imaging cytotoxicity parameters: selected cell count per valid field (SCC) and CMFDA cytoplasm average intensity
Protocol: as §1, §2
After treatment, cells were rinsed with PBS (Gibco Invitrogen, Karlsruhe, Germany), and then stained with 10 μM CellTracker Green 5-Chloromethylfluorescein Diacetate (CMFDA) (Invitrogen, Karlsruhe, Germany) in cell culture media for 30 min. CMFDA is per se non-fluorescent and is hydrolyzed by esterase in viable cells to a fluorescent-dye. The reaction with thiol groups leads to a cell-impermeable fluorescent-dye-adduct. The esterase activity can be used as an indicator for viability of cells (Papadopoulos et al., 1994, J Immunol Methods 177, 101-11). Afterwards, cells were washed with PBS and fixed with 3.7% Formaldehyde (Sigma-Aldrich, Taufkirchen, Germany) in PBS for 20 min. After that, cells were washed with PBS and blocked and permeabilized with 2% donkey serum (Millipore, Schwalbach, Germany) and 0.25% Triton X-100 (Sigma-Aldrich, Taufkirchen, Germany) in PBS for 30 min. Primary antibodies were diluted in Blocking/Permeabilization solution to final concentrations of 4 μg/ml anti-p-Chk1 (Ser345) goat polyclonal antibody IgG (santa cruz, Santa Cruz, USA), 4 μg/ml anti-p-ATM (Ser1981) mouse monoclonal antibody IgG1K (Millipore, Schwalbach, Germany) and added to the cells. After incubation for 16-18 h, cells were washed with 0.05% Tween 20 (Calbiochem, Darmstadt, Germany) in PBS, and the secondary antibody/16 μM Hoechst staining solution Blocking/Permeabilization solution was added. Secondary antibodies were diluted 1:400 (Alexa Fluor 555 donkey anti-goat, Alexa Fluor 647 donkey anti-mouse, Invitrogen, Karlsruhe, Germany). After an incubation of 1 h, followed by two additional washing steps with 0.05% Tween 20, cells were washed with PBS and finally PBS was added and cells were measured.
Image acquisition was performed on the ArrayScan VTI HCS Reader (Cellomics, Pittsburgh, USA) using a 20× objective. To detect enough cells, 50 images starting at the middle of each well were gathered.
• Channel 1: selected cell count per valid field • Channel 2: CMFDA cytoplasm average intensity • Channel 3: p-Chk1 (Ser345) nucleus average intensity • Channel 4: p-ATM (Ser1981) nucleus average intensity

[2] = HepG2 cells, 48 h, CMFDA cytoplasm average intensity, with rat liver S9 (+S9)
[3] = HepG2 cells, 48 h, CMFDA cytoplasm average intensity, without metabolic activation (−S9)
[4] = HepG2 cells, 48 h, selected cell count per valid field, with rat liver S9 (+S9)
[5] = HepG2 cells, 48 h, selected cell count per valid field, without metabolic activation (−S9)

| SMILES | CMFDA +S9 highest conc. <50% cytotox. over control (HepG2 cells; human, 48 h) | CMFDA −S9 highest conc. <50% cytotox. over control (HepG2 cells; human, 48 h) | SCC +S9 highest conc. <50% cytotox. over control (HepG2 cells; human, 48 h) | SCC −S9 highest conc. <50% cytotox. over control (HepG2 cells; human, 48 h) | also measured |
| --- | --- | --- | --- | --- | --- |
| CCCOC(=O)c1cc(O)c(O)c(O)c1 [Propyl gallate] | 1000 µM | 1000 µM | 1000 µM | 500 µM | result for the five protein markers tested (compound set as positive or negative) [1]: positive |
| CCCCC(CC)COP(=O)(OCC(CC)CCCC)OCC(CC)CCCC (centres unmarked) [Tris(2-ethylhexyl)phosphate] | – | – | – | – | CMFDA +S9 highest conc. <50% cytotox. over control (HepG2 cells; [2]): 1000 µM; CMFDA −S9 highest conc. <50% cytotox. over control (HepG2 cells; [3]): 7.813 µM; SCC +S9 highest conc. <50% cytotox. over control (HepG2 cells; [4]): 1000 µM; SCC −S9 highest conc. <50% cytotox. over control (HepG2 cells; [5]): 500 µM |
| OC[C@@H](O)[C@@H](O)[C@H](O)[C@H](O)CO [D-mannitol] | 1000 µM | 1000 µM | 1000 µM | 1000 µM | – |
| OCc1ccccc1 [Benzyl alcohol] | 1000 µM | 1000 µM | 1000 µM | 1000 µM | – |
| COS(C)(=O)=O [Methylmethane sulfonate] | 250 µM | 500 µM | 500 µM | 250 µM | – |
| CC(=O)Nc1ccc2c(c1)Cc1ccccc1-2 [2-Acetylaminofluorene] | – | – | – | – | CMFDA +S9 highest conc. <50% cytotox. over control (HepG2 cells; [2]): 1000 µM; CMFDA −S9 highest conc. <50% cytotox. over control (HepG2 cells; [3]): 1000 µM; SCC +S9 highest conc. <50% cytotox. over control (HepG2 cells; [4]): 1000 µM; SCC −S9 highest conc. <50% cytotox. over control (HepG2 cells; [5]): 1000 µM |
| CC(C)[C@@H]1CC[C@@H](C)C[C@H]1O [D,L-menthol] | – | – | – | – | CMFDA +S9 highest conc. <50% cytotox. over control (HepG2 cells): 1000 µM; CMFDA −S9 highest conc. <50% cytotox. over control (HepG2 cells): 1000 µM; SCC +S9 highest conc. <50% cytotox. over control (HepG2 cells): 1000 µM; SCC −S9 highest conc. <50% cytotox. over control (HepG2 cells): 1000 µM |
| c1ccc2c(c1)cc1ccc3cccc4ccc2c1c34 [Benzo[a]pyrene] | – | – | – | – | CMFDA +S9 highest conc. <50% cytotox. over control (HepG2 cells; human): 125 µM; CMFDA −S9 highest conc. <50% cytotox. over control (HepG2 cells; human): 125 µM; SCC +S9 highest conc. <50% cytotox. over control (HepG2 cells; human): 125 µM; SCC −S9 highest conc. <50% cytotox. over control (HepG2 cells; human): 3.91 µM |
| CCCC(O)C(CC)CO (centres unmarked) [2-Ethyl-1,3-hexanediol] | 1000 µM | 1000 µM | 1000 µM | 1000 µM | – |
| C=CC(=O)OCC [Ethyl acrylate] | – | – | – | – | CMFDA +S9 highest conc. <50% cytotox. over control (HepG2 cells; human): 1000 µM; CMFDA −S9 highest conc. <50% cytotox. over control (HepG2 cells; human): 1000 µM; SCC +S9 highest conc. <50% cytotox. over control (HepG2 cells; human): 1000 µM; SCC −S9 highest conc. <50% cytotox. over control (HepG2 cells; human): 1000 µM |
| NC(=S)N(C1CCCCC1)C1CCCCC1 [N,N-dicyclohexyl thiourea] | 500 µM | 1000 µM | 1000 µM | 500 µM | – |
| CC(=O)O[C@H]1C(=O)[C@@]2(C)[C@H]([C@H](OC(=O)c3ccccc3)[C@]3(O)C[C@H](OC(=O)[C@H](O)[C@@H](NC(=O)c4ccccc4)c4ccccc4)C(C)=C1C3(C)C)[C@]1(OC(C)=O)CO[C@@H]1C[C@@H]2O [Taxol] | 1000 µM | 1000 µM | 500 µM | 1000 µM | – |
| Cn1c(N)nc2c3cccnc3ccc21 [IQ, 2-Amino-3methylimidazo[4,5-f]quinoline] | – | – | – | – | CMFDA +S9 highest conc. <50% cytotox. over control (HepG2 cells; [2]): 125 µM; CMFDA −S9 highest conc. <50% cytotox. over control (HepG2 cells; [3]): 1000 µM; SCC +S9 highest conc. <50% cytotox. over control (HepG2 cells; [4]): 125 µM; SCC −S9 highest conc. <50% cytotox. over control (HepG2 cells; [5]): 1000 µM |
| Nc1ccc(Cl)cc1 [p-chloroaniline] | – | – | – | – | CMFDA +S9 highest conc. <50% cytotox. over control (HepG2 cells; human): 1000 µM; CMFDA −S9 highest conc. <50% cytotox. over control (HepG2 cells; human): 1000 µM; SCC +S9 highest conc. <50% cytotox. over control (HepG2 cells; human): 1000 µM; SCC −S9 highest conc. <50% cytotox. over control (HepG2 cells; human): 1000 µM |
| Nc1ccccc1C(=O)O [o-Anthranilic acid] | – | – | – | – | CMFDA +S9 highest conc. <50% cytotox. over control (HepG2 cells; [2]): 1000 µM; CMFDA −S9 highest conc. <50% cytotox. over control (HepG2 cells; [3]): 1000 µM; SCC +S9 highest conc. <50% cytotox. over control (HepG2 cells; [4]): 1000 µM; SCC −S9 highest conc. <50% cytotox. over control (HepG2 cells; [5]): 1000 µM |
| CC[C@H]1OC(=O)[C@H](C)[C@@H](O[C@H]2C[C@@](C)(OC)[C@@H](O)[C@H](C)O2)[C@H](C)[C@@H](O[C@@H]2O[C@H](C)C[C@H](N(C)C)[C@H]2O)[C@](C)(O)C[C@@H](C)C(=O)[C@H](C)[C@@H](O)[C@]1(C)O [Erythromycin stearate] | – | 62.5 µM | – | 31.25 µM | – |
| COc1cc(/C=C/C(=O)CC(=O)/C=C/c2ccc(O)c(OC)c2)ccc1O [Curcumin] | 125 µM | 31.25 µM | 125 µM | 31.25 µM | – |
| Oc1ccc(O)cc1 [Hydroquinone] | 1000 µM | 250 µM | 1000 µM | 250 µM | – |
| O=[N+]([O-])c1ccc(O)cc1 [p-Nitrophenol] | – | – | – | – | result for the five protein markers tested (compound set as positive or negative) [1]: positive |
| O=C(N[C@H](CO)[C@H](O)c1ccc([N+](=O)[O-])cc1)C(Cl)Cl [Chloramphenicol] | 1000 µM | 1000 µM | 1000 µM | 1000 µM | – |
| O=C1CCCCC1 [Cyclohexanone] | 1000 µM | 1000 µM | 1000 µM | 1000 µM | – |
